Test results as given in patent US4048299A, “Anticaries confectionaries and oral health products” (William Wrigley, Jr. Co., priority 1970, dated 1977).

Key:
Format in all cases: cell-based
Streptococcus spp. FA-1 = assay: Growth inhibition of oral microorganisms in vitro, pour plates; details: Table IX
Procedure: (a)Determined on freshly grown pure cultures. Pour plates were incubated

[1] = test system: Lactobacillus casei and Streptococcus sp. FA-1; assay: Acid-production inhibition by broth-tube assay, 0.1 percent of compound; details: Table X; 0.1 percent of compound; read-out: Activity, Acid-Production Inhibition%
Procedure: ^(a) Activity was measured by broth-tube assay to determine percent
(§1) acid-production inhibition obtained by Lactobacillus casei and
Streptococcus sp. FA-1 in the presence of 0.1 percent of compound.
^(a) Activity was measured by broth-tube assay to determine percent o
as §1
Streptococcus sp. FA-1 in the presence of 0.1% of compound. Symbols

Streptococcus spp. KI-R = assay: Growth inhibition by aldehydes in product vehicles, pour-plate technique; details: 1 to 5 percent aldehyde
How it was run: (§2)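 Aldehydes (1 to 5 percent by weight) were formulated into syrups, candies, mouthwash, toothpaste or toothpowder, added directly or as aqueous extracts to medium without a carbon source mixed 1:1 with filter-sterilized human saliva. Sugar came from the product or added sucrose. Growth over up to 24 hours was read by pour-plate count.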

[2] = test system: Lactobacillus casei ATCC 4646; assay: as above; details: 1 to 5 percent aldehyde
How it was run: as §2

[3] = in compressed candy tablet, 2 h incubation
[4] = in compressed candy tablet, 5 h incubation
[5] = in compressed candy tablet, 24 h incubation
[6] = in dextrose syrup, 2 h incubation
[7] = in dextrose syrup, 5 h incubation
[8] = in dextrose syrup, 24 h incubation
[9] = in sucrose syrup, 2 h incubation
[10] = in sucrose syrup, 5 h incubation
[11] = in sucrose syrup, 24 h incubation
[12] = in toothpaste (aqueous extract), 2 h incubation
[13] = in toothpaste (aqueous extract), 5 h incubation
[14] = in toothpaste (aqueous extract), 24 h incubation

`CCCCCCCCCC=O` [Decanaldehyde] was tested, and the “Bacterial Population, Experimental” value (Streptococcus spp. FA-1; control 2 × 10^8 to 5 × 10^8) was 0, the “Inhibition (growth)” value (Streptococcus spp. FA-1; pour plates incubated 48 - 72 hours) was 100% and the inhibition at 0.1 % [1] was 99 to 100%. For the same compound, the “Growth Inhibition” value (Streptococcus spp. KI-R; [3]) was “N.S”, the “Growth Inhibition” value (Streptococcus spp. KI-R; [4]) was “N.S” and the “Growth Inhibition” value (Streptococcus spp. KI-R; [5]) was “N.S”. For the same compound, the “Growth Inhibition” value (Streptococcus spp. KI-R; [6]) was 100 Per Cent, the “Growth Inhibition” value (Streptococcus spp. KI-R; [7]) was 100 Per Cent and the “Growth Inhibition” value (Streptococcus spp. KI-R; [8]) was 100 Per Cent. The “Growth Inhibition” value (Streptococcus spp. KI-R; [9]) was over 99.99 Per cent, the “Growth Inhibition” value (Streptococcus spp. KI-R; [10]) was over 99.99 Per cent and the “Growth Inhibition” value (Streptococcus spp. KI-R; [11]) was “N.S”. For the same compound, the “Growth Inhibition” value (Streptococcus spp. KI-R; [12]) was 0 Per cent, the “Growth Inhibition” value (Streptococcus spp. KI-R; [13]) was “N.S” and the “Growth Inhibition” value (Streptococcus spp. KI-R; [14]) was “N.S”. The “Growth Inhibition” value [2, 3] was 99.98 Per Cent, the “Growth Inhibition” value [2, 4] was 100 Per Cent and the “Growth Inhibition” value [2, 5] was 100 Per Cent. For the same compound, the “Growth Inhibition” value [2, 6] was 99.7 Per Cent, the “Growth Inhibition” value [2, 7] was 100 Per Cent and the “Growth Inhibition” value [2, 8] was 100 Per Cent. The “Growth Inhibition” value [2, 9] was 99.5 Per cent, the “Growth Inhibition” value [2, 10] was over 99.9 Per cent and the “Growth Inhibition” value [2, 11] was over 99.99 Per cent. The “Growth Inhibition” value [2, 12] was 0 Per cent, the “Growth Inhibition” value [2, 13] was “N.S” and the “Growth Inhibition” value [2, 14] was 0 Per cent.
